The results in this text go back to patent US11065194B2, “Cosmetic use of extracts of Salvia miltiorrhiza roots, special extracts of Salvia miltiorrhiza roots and cosmetic compositions containing such extracts” (SOCIETE INDUSTRIELLE LIMOUSINE D'APPLICATION BIOLOGIQUE, priority 2018, dated 2021).

In assay [1] the target is T1, TRPV1 receptors of human sensory neurons (Homo sapiens, UniProt Q8NER1).
T1 construct: endogenous in cells; host or cells: human sensory neurons derived from hiPS cells, in co-culture with normal human keratinocytes
T1 sequence (Q8NER1 whole entry): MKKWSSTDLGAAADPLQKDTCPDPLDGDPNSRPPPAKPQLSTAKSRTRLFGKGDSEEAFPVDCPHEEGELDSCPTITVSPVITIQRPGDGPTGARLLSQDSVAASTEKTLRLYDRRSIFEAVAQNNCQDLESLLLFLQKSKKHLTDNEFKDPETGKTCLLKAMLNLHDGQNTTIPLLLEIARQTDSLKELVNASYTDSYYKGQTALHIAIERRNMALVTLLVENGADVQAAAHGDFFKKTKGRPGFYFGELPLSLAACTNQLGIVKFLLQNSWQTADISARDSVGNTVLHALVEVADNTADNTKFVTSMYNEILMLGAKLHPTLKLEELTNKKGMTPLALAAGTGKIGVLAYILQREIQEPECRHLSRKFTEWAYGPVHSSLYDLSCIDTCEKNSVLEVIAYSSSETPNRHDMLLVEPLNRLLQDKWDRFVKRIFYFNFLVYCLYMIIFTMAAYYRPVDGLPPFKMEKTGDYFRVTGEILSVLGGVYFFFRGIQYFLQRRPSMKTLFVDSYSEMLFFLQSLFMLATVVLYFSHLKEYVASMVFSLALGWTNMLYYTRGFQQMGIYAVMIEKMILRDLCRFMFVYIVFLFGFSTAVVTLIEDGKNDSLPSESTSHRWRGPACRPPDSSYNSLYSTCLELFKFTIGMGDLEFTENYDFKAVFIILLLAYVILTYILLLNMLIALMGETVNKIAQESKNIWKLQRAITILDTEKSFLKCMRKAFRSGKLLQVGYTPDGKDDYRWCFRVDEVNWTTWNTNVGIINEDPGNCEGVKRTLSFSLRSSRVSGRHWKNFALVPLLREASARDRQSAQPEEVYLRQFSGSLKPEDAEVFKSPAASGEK
Put plainly: Inhibition of TRPV1 receptors of sensory neurons activated by capsaicin (cytoplasmic calcium, Fluo-4 probe). Type of assay: cell-based. The note with it: tested at 10 μM. The protocol:
The aim of this study is to evaluate the capacity of an extract of Salvia miltiorrhiza roots to inhibit the activity of TRPV1 (Transient receptor potential vanilloid 1) receptors of human sensory neurons that play a major role in the detection and transmission of sensations of pain and itching to the central nervous system.
This study was performed on a model of human sensory neurons derived from hiPS cells (human-induced Pluripotent Stem Cells) in co-culture with human keratinocytes. The activation of TRPV1 receptors is characterized by a massive entry of calcium into the cytoplasm of the sensory neurons that can be captured by a fluorescent probe and analyzed by epifluorescence microscopy.
The operating protocol is described below: • D0, culture of sensory neurons derived from hiPS cells: • The hiPS (human-induced Pluripotent Stem) cells are seeded in a culture medium and incubated at 37° C. • D14, placed in co-culture with normal human keratinocytes: • Some human keratinocytes are seeded onto the carpet of sensory neurons. […] This entry of calcium is captured by the Fluo-4 probe, causing an increase in the level of fluorescence in the neurons. The greater the increase in the level of fluorescence, the more the TRPV1 receptors are activated.
The average of the increase in the level of fluorescence was compared in percentage terms to the non-activated control condition.

The subject of the next assay is COX-2. Put plainly: Synthesis of COX-2 on SILABSKIN REs treated with fine particles (PM), immunohistochemistry. Type of assay: cell-based, human. As to conditions: tested at 1 μM. The source says: The purpose of this study is to evaluate the capacity of an extract of Salvia miltiorrhiza roots to limit the synthesis of cyclo-oxygenase 2 (COX-2) in the event of an inflammation caused by a pollutant (fine particles: PM).
The expression of COX-2 has been evaluated by immunohistochemistry on SILABSKIN® REs subjected to repeated treatments with fine particles (PM) in order to mimic a polluted environment.
Human keratinocytes were cultivated in a specific culture medium • D0: • Normal human keratinocytes were seeded on inserts then incubated at 37° C. in an atmosphere containing 5% CO2. • D2 to D13: • The culture medium was changed every 2 days. • D14 and D15, treatments of SILABSKIN® REs: • SILABSKIN® REs were treated topically with a solution of fine particles (PM), with or without the presence of the extract of Example 1 at 0.25% (V/V), or with capsazepine at […]. • D16: • The SILABSKIN® REs were recovered, fixed, dehydrated and embedded in paraffin. Sections (4 μm) were then cut using a microtome (RM2125RT, Leica).
B. Analysis of the Expression of COX-2 by Immunohistochemical Marking • Removal of paraffin with xylene • Unmasking the antigenic sites • Saturation • Primary antibody: rabbit monoclonal anti-COX-2 antibody • Secondary antibody: coupled Alexa Fluor® 488 […] antibody
The expression of COX-2 was proportional to the intensity of the green fluorescence present on the SILABSKIN® REs. A quantitative analysis of the images was performed with the aid of Matlab® version R2012b (MathWorks) software. The results were expressed in arbitrary units (UA).

Another assay has as its system PGE2. The experiment in a line: Secretion of PGE2 by human keratinocytes treated with fine particles (PM), ELISA. The note with it: tested at 0.5 μM. In kind it is cell-based. The protocol: The purpose of this study is to evaluate the capacity of an extract of Salvia miltiorrhiza roots to limit the secretion of prostaglandins E2 (PGE2) in the event of an inflammation caused by a pollutant (fine particles: PM).
This study was performed by ELISA assay on the culture supernatant of human keratinocytes subjected to a treatment with fine particles (PM) mimicking a polluted environment.
The operating protocol of the study is described below. • D0:
Normal human keratinocytes were seeded in a culture medium and incubated at 37° C. in an atmosphere containing 5% CO2. • D2: • Pre-treatment:
The keratinocytes were pretreated with or without the extract of Example 1 at 0.025% and 0.05% (V/V) or with capsazepine at 0.5 μM (inhibitor of TRPV1). The cells were then incubated for 30 minutes at 37° C. in an atmosphere containing 5% CO2. • Treatment with fine particles (PM):
The keratinocytes were treated with a solution of particles.
The cells were then incubated for 24 hours at 37° C. in an atmosphere containing 5% CO2. • D3, recovery of supernatants:
The culture supernatants were recovered and the PGE2s were assayed using an ELISA Kit (Enzo Life Sciences).
The test of Study II.2 on the secretion of PGE2 was performed on the extract and on Fraction A.
On the technique in general: ELISA stands for enzyme-linked immunosorbent assay.

Marks after values point to notes of the source that are not given here.

For `Oc1cc2c(cc1O)CN(C(=S)NCCc1ccc(Cl)cc1)CCC2` [Capsazepine, capsazepine], the inhibition at 10 µM in assay [1] (capsaicin 10 μM, read-out: Inhibition of TRPV1 receptors/activated control neurons) was determined as 199%. For the same compound, the “Mobilization of cytoplasmic calcium” value in assay [1] (neurons activated by capsaicin 10 μM, non-activated control = 100) is reported as 131*** %. In the assay on COX-2, the “Inhibition of the PM-caused increase in expression of COX-2” value is given as 38% and the “Synthesis of COX-2/polluted control” value is on record as −38%. The “Synthesis of COX-2” value in the assay on COX-2 (polluted SILABSKIN REs (PM)) was 659* ×10^3 UA. In addition, the inhibition at 0.5 µM in the assay with PGE2 (Homo sapiens, Keratinocyte, read-out: Inhibition of the PM-caused increase in secretion of PGE2) came to 78%. In addition, the “PGE2 Content/PM-treated control” value in the assay on PGE2 is −78%. Moreover, the “PGE2 Content” value in the assay on PGE2 (keratinocytes treated with PMs) is listed as 433* pg/mg of proteins.
